The values below come from patent US20230035606A1, “AN ACCURATE AND COMPREHENSIVE CARDIAC TROPONIN I ASSAY ENABLED BY NANOTECHNOLOGY AND PROTEOMICS” (Wisconsin Alumni Research Foundation, priority 2019, published 2023).

Side chains are listed from the residue outwards. Ends that are not written are not given here. BAPTES = N-(3-(triethoxysilyl)propyl)buta-2,3-dienamide; Fe3O4 nanoparticle = not defined here

One assay deals with cTnI (Homo sapiens, UniProt P19429). To be noted: peptide evolved by phage display and in silico evolution; targets cTnI residues 114-144; read-out: binding affinity (Kd); cited from earlier work.
cTnI, sequence (P19429 whole entry, the tested form may be a part): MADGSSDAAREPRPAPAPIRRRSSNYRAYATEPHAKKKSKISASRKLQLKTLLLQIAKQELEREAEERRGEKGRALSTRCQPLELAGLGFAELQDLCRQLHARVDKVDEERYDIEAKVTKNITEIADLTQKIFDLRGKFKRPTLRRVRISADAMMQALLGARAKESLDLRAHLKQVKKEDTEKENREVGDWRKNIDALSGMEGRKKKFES
The target in assay [1] is T1, human serum albumin (HSA) (human, UniProt P02768 25-609).
T1 construct: mature; also called C-HSA; C-C-HSA
T1 sequence (P02768 25-609): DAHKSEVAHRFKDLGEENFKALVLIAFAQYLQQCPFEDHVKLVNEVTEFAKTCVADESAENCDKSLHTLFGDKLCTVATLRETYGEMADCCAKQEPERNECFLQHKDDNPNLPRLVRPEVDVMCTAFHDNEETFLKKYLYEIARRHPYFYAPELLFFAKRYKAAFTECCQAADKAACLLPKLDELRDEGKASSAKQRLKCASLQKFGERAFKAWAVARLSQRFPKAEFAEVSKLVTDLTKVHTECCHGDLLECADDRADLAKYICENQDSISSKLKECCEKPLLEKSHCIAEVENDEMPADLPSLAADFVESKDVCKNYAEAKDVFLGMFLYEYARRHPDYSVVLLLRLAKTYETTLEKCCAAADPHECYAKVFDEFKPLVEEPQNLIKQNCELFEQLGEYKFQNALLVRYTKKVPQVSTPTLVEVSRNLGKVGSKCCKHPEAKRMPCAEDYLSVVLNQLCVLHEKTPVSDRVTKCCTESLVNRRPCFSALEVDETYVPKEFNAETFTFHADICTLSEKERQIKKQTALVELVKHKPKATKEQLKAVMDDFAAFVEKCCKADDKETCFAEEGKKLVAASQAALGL
In words: nanoparticle pull-down from human serum (10 mg) spiked with cTnI, SDS-PAGE and top-down LC/MS. Here is the method:
To this end, cTnI enrichment was performed from human serum spiked-in with the cTnI extracted from the same donor, DCM, and post-mortem heart samples as in FIGS. 4-6. The endogenous cTnI obtained from the different human heart samples were used as the reference cTnI sources and served to mimic cTnI found in the blood.
Comparison of the cTnI enrichment performance of the NP-Pep platform against the agarose-mAb or agarose-Pep platform from human serum spiked with cTnI. The enrichment workflow was performed in a cold room held at 4° C. to minimize possible artifactual protein modifications, such as oxidation. NP-Control (NP-BAPTES),NP-Pep (Fe₃O₄-BAPTES-Peptide), Agarose-Control beads (no coupling), Agarose-Pep beads, and Agarose-mAb beads were incubated with in a protein loading mixture containing human male AB serum (10 mg) and sarcomeric tissue extract obtained from healthy donor heart tissue, diseased heart tissue of DCM, and post-mortem heart tissue containing 306 ng cTnI, 482 ng cTnI, and 465 ng cTnI in the protein extract, respectively. cTnI values were determined by ELISA quantification as previously described. The loading mixture (L), flow through (F), and elution mixture (E) were collected, desalted using a 10 kDa MWCO, and buffer exchanged prior to SDS-PAGE gel analysis or LC-MS analysis as described in the tissue enrichment protocol.

Take HWQIAYNEHQWQ: the Kd at cTnI was 0.27 nM.

B1: Fe3O4-BAPTES-Peptide NPs (NP-Pep): high affinity cTnI-binding peptide HWQIAYNEHQWQC on BAPTES-silanized Fe3O4 nanoparticles (peptide)
peptide: HWQIAYNEHQWQC([BAPTES-Fe3O4 nanoparticle])
modifications: not fully specified; reading uncertain
notes: Synthetic peptide (GenScript) found by phage display and in silico evolution (literature); Many copies on each nanoparticle (about 1.5 peptide/nm^2 in the text); In the assay it stood on the particle, not free; also called NP-Peptide; Fe3O4-Peptide NPs
On to B1, for which the binding result in assay [1] was “no binding”.

A word on the Kd: it is the free concentration of one partner at which half of the binding sites on the other are occupied at equilibrium, for simple one-to-one binding.
